The record followed here is patent US11541028B2, “Peptide pharmaceuticals for treatment of NASH and other disorders” (Mederis Diabetes LLC, priority 2018, dated 2023).

Usually pEC50 stands for the EC50 on a negative log10 scale, so that one unit is a factor of ten.

pEC50: −log10 of the molar value. Bridge positions count the residues as written; N and C are the ends. Square brackets hold non-standard residues; d marks the D form. Peptide text beside a SMILES is read from it. * marks the point of attachment. Melibiouronoyl(1β-O-dodecyl) = CCCCCCCCCCCCO[C@@H]1O[C@H](CO[C@H]2O[C@H](C(=O)*)[C@H](O)[C@H](O)[C@H]2O)[C@@H](O)[C@H](O)[C@H]1O; X1 = CCCCCCCCCCCCCCCCO[C@@H]1O[C@H](CO[C@H]2O[C@H](C(=O)*)[C@H](O)[C@H](O)[C@H]2O)[C@@H](O)[C@H](O)[C@H]1O; Aib = CC(C)(N)C(=O)O

In one assay the target is T1, human GLP-1 receptor (Homo sapiens, UniProt P43220).
T1 construct: host or cells: CHO cells
T1 sequence (P43220 24-463): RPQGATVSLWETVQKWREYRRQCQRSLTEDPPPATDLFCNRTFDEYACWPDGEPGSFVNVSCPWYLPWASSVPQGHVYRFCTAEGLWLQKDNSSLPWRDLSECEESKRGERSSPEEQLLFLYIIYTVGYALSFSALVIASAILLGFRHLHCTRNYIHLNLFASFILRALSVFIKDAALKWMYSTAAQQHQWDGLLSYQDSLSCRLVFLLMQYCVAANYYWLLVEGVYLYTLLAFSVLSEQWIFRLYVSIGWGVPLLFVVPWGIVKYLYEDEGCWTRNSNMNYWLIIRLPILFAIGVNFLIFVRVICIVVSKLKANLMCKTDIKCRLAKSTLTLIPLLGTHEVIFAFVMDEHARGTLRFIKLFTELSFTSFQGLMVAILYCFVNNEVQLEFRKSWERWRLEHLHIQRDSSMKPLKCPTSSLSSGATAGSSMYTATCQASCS
The assay is described as follows: DiscoveRx LeadHunter cellular assay, cAMP stimulation, GLP-1 receptor in CHO cells. The format is cell-based. The note with it: human GLP-1 receptor in CHO cells (DiscoveRx); read-out: EC50 cAMP GLP-1 R.

Another assay deals with T2, human glucagon receptor (Homo sapiens, UniProt P47871).
T2 construct: host or cells: CHO cells
T2 sequence (P47871 26-477): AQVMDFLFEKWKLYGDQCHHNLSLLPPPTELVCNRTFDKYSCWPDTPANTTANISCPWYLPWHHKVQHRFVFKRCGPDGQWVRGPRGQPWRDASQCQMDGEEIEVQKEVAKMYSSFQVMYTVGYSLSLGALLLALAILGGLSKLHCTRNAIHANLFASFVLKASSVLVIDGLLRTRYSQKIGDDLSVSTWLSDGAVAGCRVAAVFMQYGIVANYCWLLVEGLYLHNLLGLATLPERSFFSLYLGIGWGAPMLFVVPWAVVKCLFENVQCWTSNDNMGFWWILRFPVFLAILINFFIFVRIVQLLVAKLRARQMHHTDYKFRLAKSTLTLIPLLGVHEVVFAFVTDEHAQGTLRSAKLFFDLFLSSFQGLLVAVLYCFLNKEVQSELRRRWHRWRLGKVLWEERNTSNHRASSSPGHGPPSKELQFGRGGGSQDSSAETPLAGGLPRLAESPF
The assay is described as follows: DiscoveRx LeadHunter cellular assay, cAMP stimulation, glucagon receptor in CHO cells. The assay is classed as cell-based.

Protocol for human GLP-1 receptor: (§1) A further series of cellular assays was carried out with standard cellular assays (DiscoveRx, LeadHunter assays) using readout of cAMP stimulation or arrestin activation. Compounds were weighed precisely in an amount of about 1 mg and shipped to DiscoveRx for dilution and assay.
Protocol for human glucagon receptor: as §1

`CCCCCCCCCCCCCCCCO[C@@H]1O[C@H](CO[C@H]2O[C@H](C(=O)NCCCC[C@H](NC(=O)[C@H](CC(=O)O)NC(=O)[C@H](CO)NC(=O)[C@@H](NC(=O)[C@H](Cc3ccccc3)NC(=O)[C@@H](NC(=O)CNC(=O)[C@H](CCC(N)=O)NC(=O)C(C)(C)NC(=O)[C@@H](N)Cc3c[nH]cn3)[C@@H](C)O)[C@@H](C)O)C(=O)N[C@@H](CO)C(=O)N[C@@H](CCCCN)C(=O)N[C@@H](Cc3ccc(O)cc3)C(=O)N[C@@H](CC(C)C)C(=O)N[C@@H](CC(=O)O)C(=O)N[C@H]3CCC(=O)NCCCC[C@@H](C(=O)N[C@@H](CCC(=O)O)C(=O)N[C@@H](Cc4ccccc4)C(=O)N[C@H](C(=O)N[C@@H](CCC(N)=O)C(=O)N[C@@H](Cc4c[nH]c5ccccc45)C(=O)N[C@@H](CC(C)C)C(=O)N[C@@H](CC(C)C)C(=O)N[C@@H](CCC(N)=O)C(=O)N[C@H](C(N)=O)[C@@H](C)O)[C@@H](C)CC)NC(=O)[C@H](C)NC(=O)[C@H](C)NC(=O)[C@H](CCC(N)=O)NC3=O)[C@H](O)[C@H](O)[C@H]2O)[C@@H](O)[C@H](O)[C@H]1O` [EU-A1596] (H-H[Aib]QGTFTSDK(X1)SKYLDEQAAKEFIQWLLQT-NH2; lactam 16-20; N-terminus assumed): the pEC50 on human GLP-1 receptor was 9.31; on human glucagon receptor, 8.91.

As to `CCCCCCCCCCCCO[C@@H]1O[C@H](CO[C@H]2O[C@H](C(=O)NCCCC[C@H](NC(=O)[C@H](CC(=O)O)NC(=O)[C@H](CO)NC(=O)[C@@H](NC(=O)[C@H](Cc3ccccc3)NC(=O)[C@@H](NC(=O)CNC(=O)[C@H](CCC(N)=O)NC(=O)C(C)(C)NC(=O)[C@@H](N)Cc3c[nH]cn3)[C@@H](C)O)[C@@H](C)O)C(=O)N[C@@H](CO)C(=O)N[C@@H](CCCCN)C(=O)N[C@@H](Cc3ccc(O)cc3)C(=O)N[C@@H](CC(C)C)C(=O)N[C@@H](CC(=O)O)C(=O)N[C@H]3CCC(=O)NCCCC[C@@H](C(=O)N[C@@H](CCC(=O)O)C(=O)N[C@@H](Cc4ccccc4)C(=O)N[C@H](C(=O)N[C@@H](CCC(=O)O)C(=O)N[C@@H](Cc4c[nH]c5ccccc45)C(=O)N[C@@H](CC(C)C)C(=O)N[C@@H](CC(C)C)C(=O)N[C@@H](CCC(N)=O)C(=O)N[C@H](C(N)=O)[C@@H](C)O)[C@@H](C)CC)NC(=O)[C@H](C)NC(=O)[C@H](C)NC(=O)[C@H](CCC(N)=O)NC3=O)[C@H](O)[C@H](O)[C@H]2O)[C@@H](O)[C@H](O)[C@H]1O` [EU-A1598] (H-H[Aib]QGTFTSDK(Melibiouronoyl(1β-O-dodecyl))SKYLDEQAAKEFIEWLLQT-NH2; lactam 16-20; N-terminus assumed), the pEC50 at human GLP-1 receptor was 10.59; at human glucagon receptor, 9.70.

With `CCCCCCCCCCCCO[C@@H]1O[C@H](CO[C@H]2O[C@H](C(=O)NCCCC[C@H](NC(=O)[C@H](CC(=O)O)NC(=O)[C@H](CO)NC(=O)[C@@H](NC(=O)[C@H](Cc3ccccc3)NC(=O)[C@@H](NC(=O)CNC(=O)[C@H](CCC(N)=O)NC(=O)C(C)(C)NC(=O)[C@@H](N)Cc3c[nH]cn3)[C@@H](C)O)[C@@H](C)O)C(=O)N[C@@H](CO)C(=O)N[C@@H](CCCCN)C(=O)N[C@@H](Cc3ccc(O)cc3)C(=O)N[C@@H](CC(C)C)C(=O)N[C@@H](CC(=O)O)C(=O)N[C@H]3CCC(=O)NCCCC[C@@H](C(=O)N[C@@H](CCC(=O)O)C(=O)N[C@@H](Cc4ccccc4)C(=O)N[C@H](C(=O)N[C@@H](CCC(=O)O)C(=O)N[C@@H](Cc4c[nH]c5ccccc45)C(=O)N[C@@H](CC(C)C)C(=O)N[C@@H](CC(C)C)C(=O)N[C@@H](CCC(N)=O)C(=O)N[C@H](C(=O)O)[C@@H](C)O)[C@@H](C)CC)NC(=O)[C@H](C)NC(=O)[C@H](C)NC(=O)[C@H](CCC(N)=O)NC3=O)[C@H](O)[C@H](O)[C@H]2O)[C@@H](O)[C@H](O)[C@H]1O` [EU-A1599] (H-H[Aib]QGTFTSDK(Melibiouronoyl(1β-O-dodecyl))SKYLDEQAAKEFIEWLLQT-OH; lactam 16-20; N-terminus assumed), the pEC50 was 10.21 on human GLP-1 receptor and 9.50 at human glucagon receptor.

On to `CCCCCCCCCCCCO[C@@H]1O[C@H](CO[C@H]2O[C@H](C(=O)NCCCC[C@H](N)C(=O)NCCCC[C@H](NC(=O)[C@@H](NC(=O)[C@H](Cc3ccccc3)NC(=O)[C@H](CCC(=O)O)NC(=O)[C@@H]3CCCCNC(=O)CC[C@H](NC(=O)[C@H](CC(=O)O)NC(=O)[C@H](CC(C)C)NC(=O)[C@H](Cc4ccc(O)cc4)NC(=O)[C@H](CCCCN)NC(=O)[C@H](CO)NC(=O)[C@H](Cc4ccc(O)cc4)NC(=O)[C@H](CC(=O)O)NC(=O)[C@H](CO)NC(=O)[C@@H](NC(=O)[C@H](Cc4ccccc4)NC(=O)[C@@H](NC(=O)CNC(=O)[C@H](CCC(N)=O)NC(=O)C(C)(C)NC(=O)[C@@H](N)Cc4c[nH]cn4)[C@@H](C)O)[C@@H](C)O)C(=O)N[C@@H](CCC(N)=O)C(=O)N[C@@H](C)C(=O)N[C@@H](C)C(=O)N3)[C@@H](C)CC)C(=O)N[C@@H](Cc3c[nH]c4ccccc34)C(=O)N[C@@H](CC(C)C)C(=O)N[C@@H](CC(C)C)C(=O)N[C@@H](CCC(N)=O)C(=O)N[C@H](C(N)=O)[C@@H](C)O)[C@H](O)[C@H](O)[C@H]2O)[C@@H](O)[C@H](O)[C@H]1O` [EU-A1601], for which the pEC50 at human GLP-1 receptor is 11.15; on human glucagon receptor, 10.32.

Consider `CCCCCCCCCCCCCCO[C@@H]1O[C@H](CO[C@H]2O[C@H](C(=O)NCCCC[C@H](N)C(=O)NCCCC[C@H](NC(=O)[C@@H](NC(=O)[C@H](Cc3ccccc3)NC(=O)[C@H](CCC(=O)O)NC(=O)[C@@H]3CCCCNC(=O)CC[C@H](NC(=O)[C@H](CC(=O)O)NC(=O)[C@H](CC(C)C)NC(=O)[C@H](Cc4ccc(O)cc4)NC(=O)[C@H](CCCCN)NC(=O)[C@H](CO)NC(=O)[C@H](Cc4ccc(O)cc4)NC(=O)[C@H](CC(=O)O)NC(=O)[C@H](CO)NC(=O)[C@@H](NC(=O)[C@H](Cc4ccccc4)NC(=O)[C@@H](NC(=O)CNC(=O)[C@H](CCC(N)=O)NC(=O)C(C)(C)NC(=O)[C@@H](N)Cc4c[nH]cn4)[C@@H](C)O)[C@@H](C)O)C(=O)N[C@@H](CCC(N)=O)C(=O)N[C@@H](C)C(=O)N[C@@H](C)C(=O)N3)[C@@H](C)CC)C(=O)N[C@@H](Cc3c[nH]c4ccccc34)C(=O)N[C@@H](CC(C)C)C(=O)N[C@@H](CC(C)C)C(=O)N[C@@H](CCC(N)=O)C(=O)N[C@H](C(N)=O)[C@@H](C)O)[C@H](O)[C@H](O)[C@H]2O)[C@@H](O)[C@H](O)[C@H]1O` [EU-A1602], for which the figures for the pEC50 on human GLP-1 receptor and on human glucagon receptor were 10.46 and 9.79, respectively.

`CCCCCCCCCCCCO[C@@H]1O[C@H](CO[C@H]2O[C@H](C(=O)N[C@@H](CCC(=O)NCCCC[C@H](NC(=O)[C@@H](NC(=O)[C@H](Cc3ccccc3)NC(=O)[C@H](CCC(=O)O)NC(=O)[C@@H]3CCCCNC(=O)CC[C@H](NC(=O)[C@H](CC(=O)O)NC(=O)[C@H](CC(C)C)NC(=O)[C@H](Cc4ccc(O)cc4)NC(=O)[C@H](CCCCN)NC(=O)[C@H](CO)NC(=O)[C@H](Cc4ccc(O)cc4)NC(=O)[C@H](CC(=O)O)NC(=O)[C@H](CO)NC(=O)[C@@H](NC(=O)[C@H](Cc4ccccc4)NC(=O)[C@@H](NC(=O)CNC(=O)[C@H](CCC(N)=O)NC(=O)C(C)(C)NC(=O)[C@@H](N)Cc4c[nH]cn4)[C@@H](C)O)[C@@H](C)O)C(=O)N[C@@H](CCC(N)=O)C(=O)N[C@@H](C)C(=O)N[C@@H](C)C(=O)N3)[C@@H](C)CC)C(=O)N[C@@H](Cc3c[nH]c4ccccc34)C(=O)N[C@@H](CC(C)C)C(=O)N[C@@H](CC(C)C)C(=O)N[C@@H](CCC(N)=O)C(=O)N[C@H](C(N)=O)[C@@H](C)O)C(=O)O)[C@H](O)[C@H](O)[C@H]2O)[C@@H](O)[C@H](O)[C@H]1O` [EU-A1606]: the pEC50 is 10.77 on human GLP-1 receptor and 10.24 at human glucagon receptor.

With `CCCCCCCCCCCCCCO[C@@H]1O[C@H](CO[C@H]2O[C@H](C(=O)N[C@@H](CCC(=O)NCCCC[C@H](NC(=O)[C@@H](NC(=O)[C@H](Cc3ccccc3)NC(=O)[C@H](CCC(=O)O)NC(=O)[C@@H]3CCCCNC(=O)CC[C@H](NC(=O)[C@H](CC(=O)O)NC(=O)[C@H](CC(C)C)NC(=O)[C@H](Cc4ccc(O)cc4)NC(=O)[C@H](CCCCN)NC(=O)[C@H](CO)NC(=O)[C@H](Cc4ccc(O)cc4)NC(=O)[C@H](CC(=O)O)NC(=O)[C@H](CO)NC(=O)[C@@H](NC(=O)[C@H](Cc4ccccc4)NC(=O)[C@@H](NC(=O)CNC(=O)[C@H](CCC(N)=O)NC(=O)C(C)(C)NC(=O)[C@@H](N)Cc4c[nH]cn4)[C@@H](C)O)[C@@H](C)O)C(=O)N[C@@H](CCC(N)=O)C(=O)N[C@@H](C)C(=O)N[C@@H](C)C(=O)N3)[C@@H](C)CC)C(=O)N[C@@H](Cc3c[nH]c4ccccc34)C(=O)N[C@@H](CC(C)C)C(=O)N[C@@H](CC(C)C)C(=O)N[C@@H](CCC(N)=O)C(=O)N[C@H](C(N)=O)[C@@H](C)O)C(=O)O)[C@H](O)[C@H](O)[C@H]2O)[C@@H](O)[C@H](O)[C@H]1O` [EU-A1607], the pEC50 is 10.66 on human GLP-1 receptor and 9.90 on human glucagon receptor.

As for `CCCCCCCCCCCCO[C@@H]1O[C@H](CO[C@H]2O[C@H](C(=O)NCCCC[C@H](N)C(=O)NCCCC[C@H](NC(=O)[C@@H](NC(=O)[C@H](Cc3ccccc3)NC(=O)[C@H](CCC(=O)O)NC(=O)[C@@H]3CCCCNC(=O)CC[C@H](NC(=O)[C@H](CC(=O)O)NC(=O)[C@H](CC(C)C)NC(=O)[C@H](Cc4ccc(O)cc4)NC(=O)[C@H](CCCCN)NC(=O)[C@H](CO)NC(=O)[C@H](Cc4ccc(O)cc4)NC(=O)[C@H](CC(=O)O)NC(=O)[C@H](CO)NC(=O)[C@@H](NC(=O)[C@H](Cc4ccccc4)NC(=O)[C@@H](NC(=O)CNC(=O)[C@H](CCC(N)=O)NC(=O)C(C)(C)NC(=O)[C@@H](N)Cc4c[nH]cn4)[C@@H](C)O)[C@@H](C)O)C(=O)N[C@@H](CCC(N)=O)C(=O)N[C@@H](C)C(=O)N[C@@H](C)C(=O)N3)[C@@H](C)CC)C(=O)N[C@@H](Cc3c[nH]c4ccccc34)C(=O)N[C@@H](CC(C)C)C(=O)N[C@@H](CC(C)C)C(=O)N[C@@H](CCC(N)=O)C(=O)N[C@H](C(=O)O)[C@@H](C)O)[C@H](O)[C@H](O)[C@H]2O)[C@@H](O)[C@H](O)[C@H]1O` [EU-A1611], the values for the pEC50 at human GLP-1 receptor and on human glucagon receptor were 10.82 and 9.80, respectively.
